In patent US20050175535A1 (CV Therapeutics, Inc., priority 2000, published 2005):
pKi: −log10 of the molar value. Like-named read-outs stand apart in the source and are kept apart here.

How the values were obtained:
[1] = molecular target: A2A adenosine receptors (Rattus norvegicus, UniProt P30543); test: Competitive radioligand binding, [3H]ZM241385, PC12 cell membranes
Procedure: Rat pheochromocytoma PC12 cells were obtained from the American Type Culture Collection and grown in DMEM with 5% fetal bovine serum, 10% horse serum, 0.5 mmol/L L-glutamine, 100 U/mL penicillin, 0.1 mg/l mL streptomycin, and 2.5 μg/mL amphotericin.
Cell membranes were harvested from the cell lines by detaching cells from the culture plates into ice-cold 50 mmol/L Tris-HCl buffer (pH 7.4). The cell suspensions were homogenized and centrifuged at 48,000g for 15 minutes. The pellets were washed three times by re-suspension in ice-cold Tris-HCl buffer and centrifugation. The final pellet was re-suspended in Tris-HCl, aliquoted and frozen at −80° C. until used for receptor binding assays.
Briefly, membrane suspensions, obtained from cells expressing either adenosine receptor subtypes A1, A2A, A2B or A3were incubated for 2 hours at room temperature in 50 mmol/L Tris-HCl buffer (pH 7.4) containing ADA (1U/mL). […] At the end of the incubation, free radioligand was separated from membrane-bound radioligand by filtration through Whatman GF/C glass fiber filters using a Brandel tissue harvester (Gaithersburg, Md.). Triplicate determinations were performed for each concentration of unlabelled compound.

[2] = Coronary and peripheral artery blood flow velocity, HR and MAP in anesthetized closed-chest dogs; assay type: in vivo; parameters: APV: unit not given here; conditions: for APV / MAP / HR: CVT-3146 (1 ug/kg)
Procedure: Mongrel dogs (either sex, 17-21 kg; n=6) were obtained from a local vendor (Barton, Oxford, N.J.). Blood flow velocity in the coronary and cranial circumflex arteries was measured using Doppler transducer-tipped guide wires 0.014″ in diameter (FloWire®, model 1400J) purchased from Cardiometrics, Inc., Mountain View, Calif. For the positioning of the FloWire, a Judkins left coronary guiding catheter (JL3.5, 8F; Cordis) was used. Vascular arterial angiography was performed using Hypaque-76 contrast fluid (Bracco Diagnostics, Inc., Princeton, N.J.; Lot #9H28899) and a mobile fluoroscopic unit (Philips, BV 29). Systemic arterial blood pressure was measured using an electronic transducer-tipped catheter (Millar).
Following the administration of heparin (20 U/kg+100 U/hr), the pressure transducer-tipped catheter was introduced through the left femoral artery and positioned in the descending aorta. The Doppler FloWire was introduced through the right femoral artery. A peripheral vein was cannulated for the administration of all drugs. […] The sequence of positioning of the Doppler catheter was reversed in consecutive experiments. […] All parameters were allowed to recover (>30 min) to their respective baseline values between two consecutive drug administrations. […] The effect of adenosine on both coronary and peripheral artery APV was studied in five of the six dogs.
The following parameters were monitored and recorded: Average peak coronary and peripheral artery blood flow velocity (APV), mean arterial blood pressure (MAP) (mmHg), and sinus cycle length (SCL; msec). Differences in measure parameters were tested for statistical significance using ANOVA and Student's t test corrected for multiple measurements. Data are expressed as the mean±SEM.

[3] = system: rat isolated perfused heart; test: Reversal time of coronary vasodilation in rat isolated perfused hearts; conditions: bolus, rat isolated perfused heart;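 note: each agonist bolused at its minimal concentration giving equal maximal coronary conductance rise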

Chain of A2A adenosine receptors (P30543 whole entry): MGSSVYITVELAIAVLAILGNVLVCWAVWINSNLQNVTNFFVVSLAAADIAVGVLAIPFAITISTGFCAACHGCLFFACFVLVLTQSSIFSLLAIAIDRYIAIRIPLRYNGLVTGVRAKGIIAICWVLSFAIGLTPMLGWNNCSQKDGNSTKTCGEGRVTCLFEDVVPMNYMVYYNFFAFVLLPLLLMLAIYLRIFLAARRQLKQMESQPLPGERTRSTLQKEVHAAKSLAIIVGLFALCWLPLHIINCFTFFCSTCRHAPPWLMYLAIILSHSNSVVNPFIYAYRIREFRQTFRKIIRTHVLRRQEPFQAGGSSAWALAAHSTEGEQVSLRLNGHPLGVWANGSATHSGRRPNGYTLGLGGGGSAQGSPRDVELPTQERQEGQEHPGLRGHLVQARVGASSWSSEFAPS

With `CNC(=O)c1cnn(-c2nc(N)c3ncn(C4O[C@@H](CO)[C@H](O)[C@@H]4O)c3n2)c1` (some centres unmarked) [CVT-3146] the pKi [1] was 5.76, the “time for all parameters to return to baseline post injection” value ([2]; CVT-3146 1 μg/kg, adenosine 200 or 300 μg/kg iv bolus, anesthetized dogs) was at most 5 min and the APV ([2]; Coronary, time 1′, Baseline 49 ± 7) was 100 ± 12. The MAP ([2]; Coronary, time 1′, Baseline 128 ± 7) was 112 ± 7 mmHg, the HR ([2]; Coronary, time 1′, Baseline 171 ± 8) was 186 ± 7 and the APV ([2]; Coronary, time 1.5′, Baseline 49 ± 7) was 97 ± 11. It also gave an MAP ([2]; Coronary, time 1.5′, Baseline 128 ± 7) of 110 ± 7 mmHg, an HR ([2]; Coronary, time 1.5′, Baseline 171 ± 8) of 186 ± 7 and an APV ([2]; Coronary, time 2′, Baseline 49 ± 7) of 88 ± 11. It also gave an MAP ([2]; Coronary, time 2′, Baseline 128 ± 7) of 110 ± 7 mmHg, an HR ([2]; Coronary, time 2′, Baseline 171 ± 8) of 185 ± 7 and an APV ([2]; Coronary, time 3′, Baseline 49 ± 7) of 81 ± 11. For the same molecule, the MAP ([2]; Coronary, time 3′, Baseline 128 ± 7) was 110 ± 6 mmHg, the HR ([2]; Coronary, time 3′, Baseline 171 ± 8) was 185 ± 7 and the APV ([2]; Coronary, time 4′, Baseline 49 ± 7) was 75 ± 11. The MAP ([2]; Coronary, time 4′, Baseline 128 ± 7) was 110 ± 6 mmHg, the HR ([2]; Coronary, time 4′, Baseline 171 ± 8) was 183 ± 8 and the APV ([2]; Coronary, time 5′, Baseline 49 ± 7) was 72 ± 11. For the same molecule, the MAP ([2]; Coronary, time 5′, Baseline 128 ± 7) was 112 ± 6 mmHg, the HR ([2]; Coronary, time 5′, Baseline 171 ± 8) was 183 ± 8 and the APV ([2]; Coronary, time 6′, Baseline 49 ± 7) was 65 ± 11. It also gave an MAP ([2]; Coronary, time 6′, Baseline 128 ± 7) of 113 ± 6 mmHg, an HR ([2]; Coronary, time 6′, Baseline 171 ± 8) of 182 ± 8 and an APV ([2]; Coronary, time 7′, Baseline 49 ± 7) of 63 ± 12. It also gave an MAP ([2]; Coronary, time 7′, Baseline 128 ± 7) of 115 ± 6 mmHg, an HR ([2]; Coronary, time 7′, Baseline 171 ± 8) of 181 ± 8 and an APV ([2]; Coronary, time 8′, Baseline 49 ± 7) of 55 ± 11. The MAP ([2]; Coronary, time 8′, Baseline 128 ± 7) was 117 ± 6 mmHg, the HR ([2]; Coronary, time 8′, Baseline 171 ± 8) was 180 ± 8 and the APV ([2]; Coronary, time 9′, Baseline 49 ± 7) was 55 ± 11. The MAP ([2]; Coronary, time 9′, Baseline 128 ± 7) was 119 ± 6 mmHg, the HR ([2]; Coronary, time 9′, Baseline 171 ± 8) was 177 ± 9 and the APV ([2]; Coronary, time 10′, Baseline 49 ± 7) was 53 ± 11. For the same molecule, the MAP ([2]; Coronary, time 10′, Baseline 128 ± 7) was 120 ± 6 mmHg, the HR ([2]; Coronary, time 10′, Baseline 171 ± 8) was 176 ± 9 and the APV ([2]; Coronary, time 10″, Baseline 49 ± 7) was 84 ± 4. The HR ([2]; Coronary, time 10″, Baseline 171 ± 8) was 177 ± 8, the APV ([2]; Coronary, time 20″, Baseline 49 ± 7) was 106 ± 8 and the MAP ([2]; Coronary, time 20″, Baseline 128 ± 7) was 116 ± 9 mmHg. The HR ([2]; Coronary, time 20″, Baseline 171 ± 8) was 186 ± 9, the APV ([2]; Coronary, time 30″, Baseline 49 ± 7) was 109 ± 10 and the MAP ([2]; Coronary, time 30″, Baseline 128 ± 7) was 117 ± 7 mmHg. For the same molecule, the HR ([2]; Coronary, time 30″, Baseline 171 ± 8) was 188 ± 7, the APV ([2]; Peripheral, time 1′, Baseline 34 ± 8) was 42 ± 4 and the MAP ([2]; Peripheral, time 1′, Baseline 116 ± 8) was 102 ± 6 mmHg. For the same molecule, the HR ([2]; Peripheral, time 1′, Baseline 162 ± 9) was 182 ± 7, the APV ([2]; Peripheral, time 1.5′, Baseline 34 ± 8) was 42 ± 4 and the MAP ([2]; Peripheral, time 1.5′, Baseline 116 ± 8) was 99 ± 7 mmHg. The HR ([2]; Peripheral, time 1.5′, Baseline 162 ± 9) was 184 ± 7, the APV ([2]; Peripheral, time 2′, Baseline 34 ± 8) was 40 ± 4 and the MAP ([2]; Peripheral, time 2′, Baseline 116 ± 8) was 98 ± 7 mmHg. It also gave an HR ([2]; Peripheral, time 2′, Baseline 162 ± 9) of 187 ± 8, an APV ([2]; Peripheral, time 3′, Baseline 34 ± 8) of 40 ± 4 and an MAP ([2]; Peripheral, time 3′, Baseline 116 ± 8) of 97 ± 7 mmHg. It also gave an HR ([2]; Peripheral, time 3′, Baseline 162 ± 9) of 187 ± 8, an APV ([2]; Peripheral, time 4′, Baseline 34 ± 8) of 39 ± 4 and an MAP ([2]; Peripheral, time 4′, Baseline 116 ± 8) of 100 ± 6 mmHg. The HR ([2]; Peripheral, time 4′, Baseline 162 ± 9) was 186 ± 8, the APV ([2]; Peripheral, time 5′, Baseline 34 ± 8) was 37 ± 5 and the MAP ([2]; Peripheral, time 5′, Baseline 116 ± 8) was 101 ± 6 mmHg. For the same molecule, the HR ([2]; Peripheral, time 5′, Baseline 162 ± 9) was 185 ± 8, the APV ([2]; Peripheral, time 10″, Baseline 34 ± 8) was 34 ± 4 and the MAP ([2]; Peripheral, time 10″, Baseline 116 ± 8) was 114 ± 9 mmHg. It also gave an HR ([2]; Peripheral, time 10″, Baseline 162 ± 9) of 167 ± 6, an APV ([2]; Peripheral, time 20″, Baseline 34 ± 8) of 38 ± 4 and an MAP ([2]; Peripheral, time 20″, Baseline 116 ± 8) of 107 ± 8 mmHg. It also gave an HR ([2]; Peripheral, time 20″, Baseline 162 ± 9) of 177 ± 7, an APV ([2]; Peripheral, time 30″, Baseline 34 ± 8) of 41 ± 4 and an MAP ([2]; Peripheral, time 30″, Baseline 116 ± 8) of 111 ± 6 mmHg. The HR ([2]; Peripheral, time 30″, Baseline 162 ± 9) was 183 ± 8.
In the case of `CCCCCn1cc(-c2nc(N)c3ncn(C4O[C@@H](CO)[C@H](O)[C@@H]4O)c3n2)cn1` (some centres unmarked) [CVT-3033], the pKi ([1]; binding affinity to A2A in PC12 cells (Ki)) was 5.44, the pKi ([1]; pKi ± SEM, PC12 cells (A2A), [3H]ZM241385) was 5.45 and the “t0.5, time to 50% reversal of the increase in coronary conductance” value [3] was 3.4 ± 0.5 min. For the same molecule, the “t0.9, time to 90% reversal of the increase in coronary conductance” value [3] was 8.4 ± 2.2 min.
